The results in this text go back to ChEMBL document CHEMBL4130448, “Novel SERMs based on 3-aryl-4-aryloxy-2H-chromen-2-one skeleton - A possible way to dual ERα/VEGFR-2 ligands for treatment of breast cancer” (Eur J Med Chem, 2017).

One test relates to MCF7. Put plainly: cells. The note with it: Homo sapiens, MCF7, 48 h.
For the next test, the target named is T1, Estrogen receptor (Homo sapiens, UniProt P03372).
T1 sequence (P03372 whole entry): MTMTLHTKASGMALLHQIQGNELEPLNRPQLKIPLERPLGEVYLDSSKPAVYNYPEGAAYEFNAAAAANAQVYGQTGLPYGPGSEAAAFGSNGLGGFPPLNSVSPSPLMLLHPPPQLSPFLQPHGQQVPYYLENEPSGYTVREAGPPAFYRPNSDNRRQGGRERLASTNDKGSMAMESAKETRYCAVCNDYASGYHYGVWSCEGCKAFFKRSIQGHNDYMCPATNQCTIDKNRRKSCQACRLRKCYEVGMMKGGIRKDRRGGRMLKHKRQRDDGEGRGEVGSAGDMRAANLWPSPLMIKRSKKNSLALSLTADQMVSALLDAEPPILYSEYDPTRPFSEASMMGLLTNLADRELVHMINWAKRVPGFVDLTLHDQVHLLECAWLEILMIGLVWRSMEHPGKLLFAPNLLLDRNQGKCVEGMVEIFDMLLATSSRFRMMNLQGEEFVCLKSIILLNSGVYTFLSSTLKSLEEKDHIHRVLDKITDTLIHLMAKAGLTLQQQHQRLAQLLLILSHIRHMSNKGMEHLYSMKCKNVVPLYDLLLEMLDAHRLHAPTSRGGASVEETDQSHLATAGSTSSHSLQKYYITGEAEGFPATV
Put plainly: Displacement of fluorescent estrogen ligand from recombinant human ERalpha expressed in insect cells incubated for 2 hrs by polarization.

The next test has as its system Ishikawa. Put plainly: cells. The following applies: Homo sapiens, 48 h.
In the next test the test system is HUVEC. The test is described as follows: Antiangiogenic activity against HUVEC incubated for 48 hrs by MTT assay. Type of test: functional, cell-based. The following applies: Homo sapiens. Background: Tetrazolium assays rely on reduction of a dye to a coloured formazan, in cell work by metabolically active cells.
Test [1] has as its target Vascular endothelial growth factor receptor 2 (Homo sapiens) (UniProt P35968). The test is described as follows: Inhibition of His-tagged human VEGFR2 at 40 uM incubated for 1 hr by HTRF assay.

pIC50: −log10 of the molar value.

Chain of Vascular endothelial growth factor receptor 2 (Homo sapiens) (P35968 whole entry): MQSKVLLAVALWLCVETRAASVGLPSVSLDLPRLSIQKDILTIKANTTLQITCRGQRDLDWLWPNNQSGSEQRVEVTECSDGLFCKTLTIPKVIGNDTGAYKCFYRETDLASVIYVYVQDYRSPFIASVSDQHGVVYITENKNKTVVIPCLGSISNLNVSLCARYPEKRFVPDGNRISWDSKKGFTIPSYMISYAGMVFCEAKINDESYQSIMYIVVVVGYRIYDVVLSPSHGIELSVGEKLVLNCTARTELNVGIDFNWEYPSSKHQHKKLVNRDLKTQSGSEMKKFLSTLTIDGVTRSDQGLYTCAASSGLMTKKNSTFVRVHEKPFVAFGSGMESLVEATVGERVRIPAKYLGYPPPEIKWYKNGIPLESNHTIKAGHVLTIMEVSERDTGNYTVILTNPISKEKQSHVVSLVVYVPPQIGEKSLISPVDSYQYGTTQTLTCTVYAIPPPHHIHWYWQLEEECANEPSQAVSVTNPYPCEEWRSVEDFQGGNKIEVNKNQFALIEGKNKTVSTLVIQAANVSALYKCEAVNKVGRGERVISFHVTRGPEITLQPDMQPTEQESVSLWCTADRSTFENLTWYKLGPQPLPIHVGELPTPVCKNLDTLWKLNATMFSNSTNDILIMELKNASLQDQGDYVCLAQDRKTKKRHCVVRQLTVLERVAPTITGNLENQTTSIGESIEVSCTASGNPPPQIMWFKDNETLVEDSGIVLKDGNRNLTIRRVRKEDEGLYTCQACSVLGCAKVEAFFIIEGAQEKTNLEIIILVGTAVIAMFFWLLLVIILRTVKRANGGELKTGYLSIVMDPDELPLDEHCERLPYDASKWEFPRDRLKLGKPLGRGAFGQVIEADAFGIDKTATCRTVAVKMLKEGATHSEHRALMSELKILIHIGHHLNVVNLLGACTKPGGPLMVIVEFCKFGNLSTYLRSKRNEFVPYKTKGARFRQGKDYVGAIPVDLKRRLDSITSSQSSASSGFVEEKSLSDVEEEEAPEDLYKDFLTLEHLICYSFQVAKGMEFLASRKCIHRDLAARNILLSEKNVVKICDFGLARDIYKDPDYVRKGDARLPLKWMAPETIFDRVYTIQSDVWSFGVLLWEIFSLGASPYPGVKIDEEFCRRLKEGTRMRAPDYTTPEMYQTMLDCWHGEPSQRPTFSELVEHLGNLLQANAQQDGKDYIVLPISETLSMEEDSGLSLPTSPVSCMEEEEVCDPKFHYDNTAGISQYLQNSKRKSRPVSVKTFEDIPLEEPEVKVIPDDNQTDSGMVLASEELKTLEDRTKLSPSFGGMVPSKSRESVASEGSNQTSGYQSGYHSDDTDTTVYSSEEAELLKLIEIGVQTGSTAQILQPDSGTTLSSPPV
Description for Ishikawa: Cytotoxicity in human Ishikawa cells assessed as inhibition of cell growth incubated for 48 hrs by MTT assay
Description for MCF7: Cytotoxicity in human MCF7 cells assessed as inhibition of cell growth incubated for 48 hrs by MTT assay

In the case of `CCN(CC)CCOc1ccc(Oc2c(-c3ccc(F)cc3)c(=O)oc3cc(OC)ccc23)cc1`, the pIC50 (as a rule, −log10 of the IC50, conventionally taken in molar units) with MCF7 is 4.78; at Estrogen receptor, less than 5.00; in the test with Ishikawa it was 4.80.

With `CCN(CC)CCOc1ccc(Nc2c(-c3ccc(F)cc3)c(=O)oc3ccccc23)cc1`, the pIC50 in the test with MCF7 was 4.58; on Estrogen receptor it was less than 5.00; with Ishikawa it was 4.61.

As to `COc1ccc(-c2c(Oc3ccc(OCCN(C)C)cc3)c3ccc(OC)cc3oc2=O)cc1`, the pIC50 was 4.75 in the test with MCF7, less than 5.00 at Estrogen receptor and 4.94 in the test on Ishikawa.

In the case of `COc1ccc2c(Nc3ccc(OCCN4CCCC4)cc3)c(-c3ccc(F)cc3)c(=O)oc2c1`, the results for the pIC50 in the test on MCF7, on Estrogen receptor and in the test with Ishikawa were 4.67, less than 5.00 and 4.90, respectively.

Turning to `O=c1oc2cc(O)ccc2c(Oc2ccc(OCCN3CCCC3)cc2)c1-c1ccc(O)cc1`, the negative-log IC50 (pIC50) with MCF7 was 4.62; at Estrogen receptor, 5.16; in the test on Ishikawa it was 4.61.

On to `CCN(CC)CCOc1ccc(Nc2c(-c3ccc(O)cc3)c(=O)oc3cc(O)ccc23)cc1`, for which the values for the pIC50 with MCF7, at Estrogen receptor and with Ishikawa were 4.56, 5.22 and 4.54, respectively.

`CCN(CC)CCOc1ccc(Oc2c(-c3ccc(F)cc3)c(=O)oc3cc(O)ccc23)cc1`: the results for the pIC50 in the test with MCF7, on Estrogen receptor and in the test on Ishikawa were 4.67, 5.45 and 4.76, respectively.

Regarding `COc1cc2/c(=N/c3ccc(Br)cc3F)nc[nH]c2cc1OCC1CCN(C)CC1` [VANDETANIB], the results for the pIC50 in the test with HUVEC and in the test with MCF7 were 5.17 and 4.78, respectively. Also, the inhibition (usually the change of the read-out against control, counted positive when it falls) in test [1] is 95.7%.

As to `O=c1oc2cc(O)ccc2c(Oc2ccc(OCCN3CCCCC3)cc2)c1-c1ccc(O)cc1`, the pIC50 was 4.62 with HUVEC, 4.71 in the test with MCF7, 5.58 on Estrogen receptor and 4.55 in the test on Ishikawa. This compound also had an inhibition in test [1] of 66.1%.

Consider `COc1ccc(-c2c(Oc3ccc(OCCN4CCCCC4)cc3)c3ccc(OC)cc3oc2=O)cc1`, for which the pIC50 in the test on HUVEC is 5.12; with MCF7, 5.02; on Estrogen receptor, 5.03; in the test with Ishikawa it was 5.13. In test [1], this compound displayed an inhibition of 67.6%.

Take `CN(C)CCOc1ccc(Nc2c(-c3ccc(O)cc3)c(=O)oc3cc(O)ccc23)cc1`: the pIC50 was 4.55 in the test on MCF7, 5.09 at Estrogen receptor and 4.52 in the test on Ishikawa.

For the compound `COc1ccc2c(Oc3ccc(OCCN4CCCC4)cc3)c(-c3ccc(F)cc3)c(=O)oc2c1`, the negative-log IC50 (pIC50) is 4.84 in the test on MCF7, less than 5.00 on Estrogen receptor and 4.82 in the test with Ishikawa.

`CCN(CC)CCOc1ccc(Oc2c(-c3ccc(O)cc3)c(=O)oc3cc(O)ccc23)cc1`: the pIC50 in the test on MCF7 was less than 4.30; at Estrogen receptor, less than 5.00; in the test on Ishikawa, less than 4.30.

Turning to `O=c1oc2cc(O)ccc2c(Nc2ccc(OCCN3CCCC3)cc2)c1-c1ccc(F)cc1`, the pIC50 was 4.86 in the test with MCF7, 5.34 at Estrogen receptor and 4.67 in the test on Ishikawa.

In the case of `O=c1oc2cc(O)ccc2c(Nc2ccc(OCCN3CCCC3)cc2)c1-c1ccc(O)cc1`, the negative-log IC50 (pIC50) with MCF7 is 4.69; at Estrogen receptor it was 5.19; in the test with Ishikawa, 4.57.

On to `CN(C)CCOc1ccc(Oc2c(-c3ccc(O)cc3)c(=O)oc3cc(O)ccc23)cc1`, for which the pIC50 in the test on MCF7 is 4.38; at Estrogen receptor it was 5.07; in the test with Ishikawa, 4.43.

Turning to `COc1ccc2c(Oc3ccc(OCCN(C)C)cc3)c(-c3ccc(F)cc3)c(=O)oc2c1`, the figures for the pIC50 in the test with MCF7, on Estrogen receptor and in the test with Ishikawa were 4.82, 5.05 and 4.76, respectively.

For `CCN(CC)CCOc1ccc(Nc2c(-c3ccc(F)cc3)c(=O)oc3cc(OC)ccc23)cc1`, the values for the pIC50 in the test on MCF7, at Estrogen receptor and in the test with Ishikawa were 4.58, less than 5.00 and 4.75, respectively.

On to `CN(C)CCOc1ccc(Oc2c(-c3ccc(F)cc3)c(=O)oc3cc(O)ccc23)cc1`, for which the pIC50 with MCF7 was 4.78; at Estrogen receptor it was 5.19; in the test with Ishikawa it was 4.73.

With `COc1ccc2c(Nc3ccc(OCCN4CCCCC4)cc3)c(-c3ccc(F)cc3)c(=O)oc2c1`, the pIC50 was 5.04 with HUVEC, 4.90 with MCF7, 5.10 on Estrogen receptor and 5.06 with Ishikawa. Further, the inhibition in test [1] turned out to be 66%.

`O=c1oc2ccccc2c(Nc2ccc(OCCN3CCCC3)cc2)c1-c1ccc(F)cc1`: the pIC50 with MCF7 was 4.58; at Estrogen receptor, less than 5.00; with Ishikawa, 4.59.

For the compound `COc1ccc2c(Oc3ccc(OCCN4CCCCC4)cc3)c(-c3ccc(F)cc3)c(=O)oc2c1`, the negative logarithm of the IC50 (pIC50) with HUVEC was 4.87; with MCF7, 5.03; on Estrogen receptor, 5.16; with Ishikawa, 5.08. The inhibition in test [1] turned out to be 55.1%.

Regarding `O=c1oc2cc(O)ccc2c(Nc2ccc(OCCN3CCCCC3)cc2)c1-c1ccc(F)cc1`, the pIC50 is 5.00 in the test with HUVEC, 5.15 in the test with MCF7, 5.41 on Estrogen receptor and 4.98 in the test with Ishikawa. Besides, the inhibition in test [1] is 88.4%.

Turning to `CCN(CC)CCOc1ccc(Oc2c(-c3ccc(OC)cc3)c(=O)oc3cc(OC)ccc23)cc1`, the pIC50 was 4.81 with MCF7, less than 5.00 at Estrogen receptor and 5.03 with Ishikawa.

Regarding `CCN(CC)CCOc1ccc(Nc2c(-c3ccc(F)cc3)c(=O)oc3cc(O)ccc23)cc1`, the pIC50 is 4.76 with MCF7, 5.36 on Estrogen receptor and 4.76 with Ishikawa.

For `O=c1oc2cc(O)ccc2c(Nc2ccc(OCCN3CCCCC3)cc2)c1-c1ccc(O)cc1`, the pIC50 in the test with HUVEC is 4.51; in the test with MCF7, 4.73; on Estrogen receptor it was 5.42; in the test with Ishikawa, 4.61. For the same compound, in test [1], the inhibition amounted to 83.2%.

As to `CN(C)CCOc1ccc(Nc2c(-c3ccc(F)cc3)c(=O)oc3ccccc23)cc1`, the pIC50 in the test with MCF7 was 4.49; at Estrogen receptor it was less than 5.00; in the test with Ishikawa it was 4.55.

In the case of `COc1ccc(-c2c(Oc3ccc(OCCN4CCCC4)cc3)c3ccc(OC)cc3oc2=O)cc1`, the pIC50 in the test on MCF7 was 4.84; on Estrogen receptor, less than 5.00; in the test with Ishikawa it was 5.07.

As to `O=c1oc2cc(O)ccc2c(Oc2ccc(OCCN3CCCC3)cc2)c1-c1ccc(F)cc1`, the pIC50 was 4.78 in the test on MCF7, 5.37 at Estrogen receptor and 4.65 in the test on Ishikawa.

Turning to `COc1ccc(-c2c(Nc3ccc(OCCN4CCCCC4)cc3)c3ccc(O)cc3oc2=O)cc1`, the pIC50 with HUVEC was 4.79; in the test with MCF7, 4.94; at Estrogen receptor, 5.18; with Ishikawa it was 4.84. Further, the inhibition in test [1] amounted to 59.3%.

For the compound `CC/C(=C(\c1ccccc1)c1ccc(OCCN(C)C)cc1)c1ccccc1` [TAMOXIFEN], the figures for the pIC50 with MCF7 and in the test on Ishikawa were 4.84 and 4.69, respectively.

On to `O=c1oc2ccccc2c(Nc2ccc(OCCN3CCCCC3)cc2)c1-c1ccc(F)cc1`, for which the pIC50 in the test on HUVEC is 4.77; in the test with MCF7, 4.95; on Estrogen receptor it was 5.11; with Ishikawa, 4.99. For the same compound, in test [1], the inhibition worked out at 41.8%.

For `CN(C)CCOc1ccc(Nc2c(-c3ccc(F)cc3)c(=O)oc3cc(O)ccc23)cc1`, the figures for the pIC50 with MCF7, on Estrogen receptor and with Ishikawa were 4.71, 5.18 and 4.60, respectively.

In the case of `COc1ccc2c(Nc3ccc(OCCN(C)C)cc3)c(-c3ccc(F)cc3)c(=O)oc2c1`, the pIC50 in the test with MCF7 was 4.50; on Estrogen receptor it was less than 5.00; in the test on Ishikawa, 4.87.
